US10105403B2, “Methods of treating iron deficiency to prevent iron-deficiency anemia by administration of Lactobacillus plantarum” (Probi AB, priority 2005, dated 2018)

Tested on: Caco-2 cells
Test: Cellular 55Fe uptake and transfer across Caco-2 monolayers with bacterial suspensions
Format: cell-based
Method: Caco-2 cells were obtained from the American Type Culture Collection (Rockville, Md.) at passage 17 and used for experiments at passages 20-35. Stock cultures were maintained in Dulbecco's modified […] medium (DMEM) supplemented with 20% (v/v) fetal calf serum (FSC), […] penicillin G, and 100 mg/L streptomycin at 37° C. in a huminified atmosphere of 95% air-5% CO2. The growth medium was changed every second to third day. Cells were split at ˜80% confluence using 0.5 g/L trypsin with 0.5 mmol/L EDTA in Dulbecco's phosphate buffered saline (PBS). […]
Lactobacillus plantarum 299v (DSM9843), (5), Lactobacillus plantarum 299, (1), Lactobacillus plantarum Heal 9 (DSM 15312), (2), Lactobacillus plantarum Heal 19 (DSM15313), (4), Lactobacillus plantarum 299v mutant (AMJ1277), (3) and Lactobacillus reuteri, (6) were cultured in MRS broth at a rotary shaker (37° C., 200 rpm). […] The volume of cell culture corresponding to a certain cell-number was calculated from a predetermined standard curve. […]
Fresh supplemented DMEM was provided to the cells 1 day prior to the uptake and transfer assays. […] After 2 h incubation, the cells were washed four times with ice-cold wash buffer (150 mmol/L NaCl, 10 mmol/L HEPES, 1 mmol/L EDTA, pH7) and homogenized in 0.5M NaOH. ^55Fe transferred to the basolateral chamber or associated with the Caco-2 lysates was measured by liquid scintillation counting. […]

Q: Which results are given for Lactobacillus reuteri?
A: Transport % (FeCl3 10 μmol/l in HBSS/HEPES, 55Fe traced, 2 h incubation, 6.7×10^7 cells/ml (Lactobacillus reuteri 3.35×10^7 cells/ml), control without bacteria 0.06): 0.11%; Effect on Fe transport (in words) (FeCl3 10 μmol/l, Caco-2 monolayers, compared to neat Fe solution): an increase of the transport is seen, but not comparable with the different Lactobacillus plantarum strains
